MIC, MBC and IC50 data for two compounds are collected here from ChEMBL document CHEMBL5233258, “Recent developments of gallic acid derivatives and their hybrids in medicinal chemistry: A review” (Eur J Med Chem, 2020).

The test system of experiment [1] is Staphylococcus aureus. Nature of the experiment: Antibacterial activity against Staphylococcus aureus ATCC 12598 assessed as inhibition of bacterial growth incubated for 48 hrs by broth macrodilution method. It counts as functional.
For experiment [2], the system named is Bacillus subtilis. Description: Antibacterial activity against Bacillus subtilis ATCC 9372 assessed as inhibition of bacterial growth incubated for 48 hrs by broth macrodilution method. It counts as functional.
In experiment [3] the test system is Staphylococcus aureus. Nature of the experiment: Bactericidal activity against Staphylococcus aureus ATCC 12598 assessed as inhibition of bacterial growth incubated for 48 hrs by broth macrodilution method. It counts as functional.
The subject of experiment [4] is Bacillus subtilis. Nature of the experiment: Bactericidal activity against Bacillus subtilis ATCC 9372 assessed as inhibition of bacterial growth incubated for 48 hrs by broth macrodilution method. Type of experiment: functional.
The subject of experiment [5] is Micrococcus luteus. Nature of the experiment: Bactericidal activity against Micrococcus luteus ATCC 4698 assessed as inhibition of bacterial growth incubated for 48 hrs by broth macrodilution method. It counts as functional.
Experiment [6] concerns Corynebacterium ammoniagenes. Description: Bactericidal activity against Brevibacterium ammoniagenes ATCC 6872 assessed as inhibition of bacterial growth incubated for 48 hrs by broth macrodilution method. It counts as functional.
The subject of experiment [7] is Corynebacterium ammoniagenes. Nature of the experiment: Antibacterial activity against Brevibacterium ammoniagenes ATCC 6872 assessed as inhibition of bacterial growth incubated for 48 hrs by broth macrodilution method. It counts as functional.
The subject of experiment [8] is Micrococcus luteus. Nature of the experiment: Antibacterial activity against Micrococcus luteus ATCC 4698 assessed as inhibition of bacterial growth incubated for 48 hrs by broth macrodilution method. Type of experiment: functional.
In experiment [9] the target is T1, Seed linoleate 13S-lipoxygenase-1 (Glycine max, UniProt P08170).
T1 sequence (P08170 whole entry): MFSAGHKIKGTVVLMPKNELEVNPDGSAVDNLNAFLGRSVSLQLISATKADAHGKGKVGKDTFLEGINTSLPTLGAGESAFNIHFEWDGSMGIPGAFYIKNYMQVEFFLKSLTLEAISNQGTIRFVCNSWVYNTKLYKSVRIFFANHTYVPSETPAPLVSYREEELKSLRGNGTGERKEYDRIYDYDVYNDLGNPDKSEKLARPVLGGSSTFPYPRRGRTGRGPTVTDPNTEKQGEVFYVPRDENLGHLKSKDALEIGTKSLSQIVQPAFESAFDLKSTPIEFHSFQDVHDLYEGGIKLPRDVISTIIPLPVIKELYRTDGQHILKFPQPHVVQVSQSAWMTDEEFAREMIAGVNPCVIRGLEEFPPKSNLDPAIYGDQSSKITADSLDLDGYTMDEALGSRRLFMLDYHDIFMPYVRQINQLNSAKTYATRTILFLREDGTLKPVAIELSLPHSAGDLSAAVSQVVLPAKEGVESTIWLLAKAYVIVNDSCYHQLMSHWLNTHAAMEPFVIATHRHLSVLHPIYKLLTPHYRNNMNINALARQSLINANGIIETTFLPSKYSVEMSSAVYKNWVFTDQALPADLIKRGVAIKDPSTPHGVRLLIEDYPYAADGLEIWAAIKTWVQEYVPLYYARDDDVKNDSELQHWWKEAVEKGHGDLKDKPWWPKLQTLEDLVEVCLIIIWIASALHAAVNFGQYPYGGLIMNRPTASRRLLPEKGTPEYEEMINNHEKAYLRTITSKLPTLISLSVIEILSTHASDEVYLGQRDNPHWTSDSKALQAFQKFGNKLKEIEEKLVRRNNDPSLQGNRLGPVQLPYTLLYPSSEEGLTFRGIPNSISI
Nature of the experiment: Inhibition of soybean LOX-1.

Experiment [10] can be described thus: Antioxidant activity in ethanol. It counts as functional.

SMILES strings stand for the structures.

The term MIC denotes the lowest concentration that inhibits growth of the organism. The MBC is the smallest concentration meeting the test's criterion for killing. With `CCCCCCCCCCCCOC(=O)c1cc(O)c(O)c(O)c1` [DODECYL GALLATE], the MIC (with Staphylococcus aureus [1]; in the experiment on Bacillus subtilis [2]; in experiment [7]; in the experiment with Micrococcus luteus [8]) was more than 200 µg/mL each time. Besides, the MBC (with Staphylococcus aureus [3]; with Bacillus subtilis [4]; in the experiment on Micrococcus luteus [5]; in experiment [6]) was more than 200 µg/mL each time. Also, the IC50 in experiment [9] was 1100 nM.
`CCCCCCCCOC(=O)c1cc(O)c(O)c(O)c1` [OCTYL_GALLATE]: the IC50 in experiment [10] is reported as 19 ppm.
